Laboratory results: ChEMBL document CHEMBL1255476, “Telbivudine exhibits no inhibitory activity against HIV-1 clinical isolates in vitro” (Antimicrob Agents Chemother, 2010)

Legend:
[1] = test system: Human immunodeficiency virus 1; experiment: Antiviral activity against HIV1 subtype A isolate 1 infected in HEK293 cells assessed as inhibition of virus replication after 72 hrs; assay type: functional, organism-based; conditions: Human immunodeficiency virus 1, HEK293, 72 h
[2] = test system: HEK293; experiment: Cytotoxicity against human HEK293 cells at 600 uM; assay type: cell-based; conditions: hek293, 600 µM
[3] = test system: Human immunodeficiency virus 1; experiment: Antiviral activity against HIV1 subtype BF isolate 5 infected in HEK293 cells assessed as inhibition of virus replication after 72 hrs; assay type: functional, organism-based; conditions: Human immunodeficiency virus 1, subtype BF isolate 5, HEK293, 72 h
[4] = test system: Human immunodeficiency virus 1; experiment: Antiviral activity against HIV1 subtype B isolate 3 infected in HEK293 cells assessed as inhibition of virus replication after 72 hrs; assay type: functional, organism-based; conditions: Human immunodeficiency virus 1, subtype B isolate 3, HEK293, 72 h
[5] = test system: Human immunodeficiency virus 1; experiment: Antiviral activity against HIV1 subtype A isolate 2 infected in HEK293 cells assessed as inhibition of virus replication after 72 hrs; assay type: functional, organism-based; conditions: Human immunodeficiency virus 1, subtype A isolate 2, HEK293, 72 h
[6] = test system: Human immunodeficiency virus 1; experiment: Antiviral activity against HIV1 expressing reverse transcriptase K103N/Y181C/G190A mutant infected in HEK293 cells assessed as inhibition of virus replication after 72 hrs; assay type: functional, organism-based; conditions: Human immunodeficiency virus 1, HEK293, 72 h
[7] = test system: Human immunodeficiency virus 1; experiment: Antiviral activity against HIV1 subtype C isolate 6 infected in HEK293 cells assessed as inhibition of virus replication after 72 hrs; assay type: functional, organism-based; conditions: Human immunodeficiency virus 1, HEK293, 72 h
[8] = test system: Human immunodeficiency virus 1; experiment: Antiviral activity against HIV1 NL4-3 infected in HEK293 cells assessed as inhibition of virus replication after 72 hrs; assay type: functional, organism-based; conditions: Human immunodeficiency virus 1, NL4-3, HEK293, 72 h
[9] = test system: Human immunodeficiency virus 1; experiment: Antiviral activity against HIV1 subtype C isolate 7 infected in HEK293 cells assessed as inhibition of virus replication after 72 hrs; assay type: functional, organism-based; conditions: Human immunodeficiency virus 1, subtype C isolate 7, HEK293, 72 h
[10] = test system: HEK293; experiment: Cytotoxicity against human HEK293 cells at 2000 uM; assay type: cell-based; conditions: hek293, 2000 µM
[11] = test system: Human immunodeficiency virus 1; experiment: Antiviral activity against HIV1 subtype D isolate 8 infected in HEK293 cells assessed as inhibition of virus replication after 72 hrs; assay type: functional, organism-based; conditions: Human immunodeficiency virus 1, subtype D isolate 8, HEK293, 72 h
[12] = Cmax in human at 600 mg; assay type: ADME, organism-based; set-up: dose 600 mg; conditions: in vivo
[13] = test system: Human immunodeficiency virus 1; experiment: Antiviral activity against HIV1 subtype B isolate 4 infected in HEK293 cells assessed as inhibition of virus replication after 72 hrs; assay type: functional, organism-based; conditions: Human immunodeficiency virus 1, HEK293, 72 h
[14] = test system: Human immunodeficiency virus 1; experiment: Antiviral activity against HIV1 expressing reverse transcriptase D67N/K70R/T215F/K219E/M184V mutant infected in HEK293 cells assessed as inhibition of virus replication after 72 hrs; assay type: functional, organism-based; conditions: Human immunodeficiency virus 1, HEK293, 72 h
[15] = test system: HEK293; experiment: Cytotoxicity against human HEK293 cells at 100 uM; assay type: cell-based; conditions: hek293, 100 µM

SMILES: Cc1cn([C@@H]2C[C@@H](O)[C@H](CO)O2)c(=O)[nH]c1=O [TELBIVUDINE]
- EC50 [1]: > 600 µM
- Activity [2]: Non-toxic
- EC50 [3]: > 600 µM
- EC50 [4]: > 600 µM
- EC50 [5]: > 600 µM
- EC50 [6]: > 600 µM
- EC50 [7]: > 600 µM
- EC50 [8]: > 600 µM
- EC50 [9]: > 600 µM
- Activity [10]: Non-toxic
- EC50 [11]: > 600 µM
- Cmax [12]: 13.2 µM
- EC50 [13]: > 600 µM
- EC50 [14]: > 600 µM

SMILES: C=C1[C@H](CO)[C@@H](O)C[C@@H]1n1cnc2c(=O)[nH]c(N)nc21.O [ENTECAVIR]
- EC50 [1]: 12.5 µM
- Activity [15]: Non-toxic
- EC50 [3]: 13.6 µM
- EC50 [4]: 15.1 µM
- EC50 [5]: 13.2 µM
- EC50 [6]: 11.7 µM
- EC50 [7]: 9.51 µM
- EC50 [8]: 12.6 µM
- EC50 [9]: 9.95 µM
- EC50 [11]: 7.62 µM
- EC50 [13]: 13.5 µM
- EC50 [14]: > 100 µM

SMILES: Nc1ccn([C@@H]2CS[C@H](CO)O2)c(=O)n1 [LAMIVUDINE]
- EC50 [1]: 3.54 µM
- EC50 [3]: 4.24 µM
- EC50 [4]: 4.78 µM
- EC50 [5]: 4.48 µM
- EC50 [6]: 7.16 µM
- EC50 [7]: 3.9 µM
- EC50 [8]: 4.68 µM
- EC50 [9]: 4.06 µM
- EC50 [11]: 3.25 µM
- EC50 [13]: 5.43 µM
- EC50 [14]: > 300 µM
